Among the data in patent publication US10065963B2 (Incyte Corporation, priority 2015, dated 2018) are IC50 values, retold here.

Each structure is given as a SMILES string. Counter-ions that a name gives are not always drawn. Some results are limits rather than exact numbers.

Assay [1] addresses PI3Kγ (p110γ) Recombinant Human Protein (Homo sapiens (Human), UniProt P48736). Description: PI3K-γ scintillation proximity assay. The format is biochemical. Conditions: 2 μM ATP, 20 μM PIP2.
Assay [2] deals with PI3Kδ (p110δ/p85α) Recombinant Human Protein (Homo sapiens (Human), UniProt O00329). In words: PI3Kδ scintillation proximity assay. The format is biochemical. A general note: Scintillation proximity formats need no separation of bound from free tracer.
Sequence of PI3Kδ (p110δ/p85α) Recombinant Human Protein (O00329 whole entry): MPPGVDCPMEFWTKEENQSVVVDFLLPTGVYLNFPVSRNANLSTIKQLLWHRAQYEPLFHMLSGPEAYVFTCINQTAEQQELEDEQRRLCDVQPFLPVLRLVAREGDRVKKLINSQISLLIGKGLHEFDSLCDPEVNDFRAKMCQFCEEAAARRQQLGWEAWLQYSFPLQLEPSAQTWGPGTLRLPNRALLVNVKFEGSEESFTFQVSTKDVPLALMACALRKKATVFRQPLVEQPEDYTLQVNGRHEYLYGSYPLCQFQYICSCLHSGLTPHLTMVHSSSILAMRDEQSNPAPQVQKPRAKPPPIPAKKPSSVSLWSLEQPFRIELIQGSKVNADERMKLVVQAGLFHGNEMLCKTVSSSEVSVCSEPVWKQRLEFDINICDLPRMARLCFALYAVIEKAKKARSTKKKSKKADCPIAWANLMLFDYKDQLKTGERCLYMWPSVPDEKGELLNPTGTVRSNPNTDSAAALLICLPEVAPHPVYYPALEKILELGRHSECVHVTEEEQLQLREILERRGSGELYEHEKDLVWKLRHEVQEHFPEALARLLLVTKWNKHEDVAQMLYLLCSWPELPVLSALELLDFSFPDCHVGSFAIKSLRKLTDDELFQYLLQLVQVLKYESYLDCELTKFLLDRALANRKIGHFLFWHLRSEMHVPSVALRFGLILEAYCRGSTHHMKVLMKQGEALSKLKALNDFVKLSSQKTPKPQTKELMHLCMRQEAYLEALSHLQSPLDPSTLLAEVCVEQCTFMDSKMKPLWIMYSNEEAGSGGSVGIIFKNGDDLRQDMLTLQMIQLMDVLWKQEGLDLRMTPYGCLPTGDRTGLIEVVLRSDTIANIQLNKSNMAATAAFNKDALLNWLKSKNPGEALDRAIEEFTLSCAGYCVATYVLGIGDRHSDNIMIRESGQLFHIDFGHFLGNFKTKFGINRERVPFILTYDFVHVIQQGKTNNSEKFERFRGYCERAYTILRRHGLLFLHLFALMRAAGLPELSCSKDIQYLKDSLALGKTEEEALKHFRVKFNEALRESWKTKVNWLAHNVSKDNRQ
Sequence of PI3Kδ (p110δ/p85α) Recombinant Human Protein (P27986 whole entry partner): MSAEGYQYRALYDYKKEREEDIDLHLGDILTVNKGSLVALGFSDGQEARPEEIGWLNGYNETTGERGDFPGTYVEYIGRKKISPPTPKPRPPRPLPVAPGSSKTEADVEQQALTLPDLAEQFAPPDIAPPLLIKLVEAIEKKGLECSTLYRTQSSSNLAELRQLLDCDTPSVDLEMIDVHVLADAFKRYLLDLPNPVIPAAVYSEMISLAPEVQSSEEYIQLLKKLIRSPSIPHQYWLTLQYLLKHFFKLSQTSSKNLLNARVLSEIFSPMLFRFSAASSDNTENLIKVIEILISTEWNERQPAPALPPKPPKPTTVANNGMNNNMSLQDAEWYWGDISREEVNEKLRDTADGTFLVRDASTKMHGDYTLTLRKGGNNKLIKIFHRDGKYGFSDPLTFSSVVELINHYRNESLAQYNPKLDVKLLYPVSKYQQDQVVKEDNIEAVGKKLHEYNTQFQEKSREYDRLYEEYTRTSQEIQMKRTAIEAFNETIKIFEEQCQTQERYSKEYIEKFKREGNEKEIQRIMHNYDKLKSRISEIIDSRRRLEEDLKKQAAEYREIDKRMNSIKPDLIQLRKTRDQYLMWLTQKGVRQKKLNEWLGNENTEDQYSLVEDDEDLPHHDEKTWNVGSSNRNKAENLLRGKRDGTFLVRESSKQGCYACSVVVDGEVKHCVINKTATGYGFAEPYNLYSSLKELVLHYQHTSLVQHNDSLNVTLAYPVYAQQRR

Sequence of PI3Kγ (p110γ) Recombinant Human Protein (P48736 whole entry): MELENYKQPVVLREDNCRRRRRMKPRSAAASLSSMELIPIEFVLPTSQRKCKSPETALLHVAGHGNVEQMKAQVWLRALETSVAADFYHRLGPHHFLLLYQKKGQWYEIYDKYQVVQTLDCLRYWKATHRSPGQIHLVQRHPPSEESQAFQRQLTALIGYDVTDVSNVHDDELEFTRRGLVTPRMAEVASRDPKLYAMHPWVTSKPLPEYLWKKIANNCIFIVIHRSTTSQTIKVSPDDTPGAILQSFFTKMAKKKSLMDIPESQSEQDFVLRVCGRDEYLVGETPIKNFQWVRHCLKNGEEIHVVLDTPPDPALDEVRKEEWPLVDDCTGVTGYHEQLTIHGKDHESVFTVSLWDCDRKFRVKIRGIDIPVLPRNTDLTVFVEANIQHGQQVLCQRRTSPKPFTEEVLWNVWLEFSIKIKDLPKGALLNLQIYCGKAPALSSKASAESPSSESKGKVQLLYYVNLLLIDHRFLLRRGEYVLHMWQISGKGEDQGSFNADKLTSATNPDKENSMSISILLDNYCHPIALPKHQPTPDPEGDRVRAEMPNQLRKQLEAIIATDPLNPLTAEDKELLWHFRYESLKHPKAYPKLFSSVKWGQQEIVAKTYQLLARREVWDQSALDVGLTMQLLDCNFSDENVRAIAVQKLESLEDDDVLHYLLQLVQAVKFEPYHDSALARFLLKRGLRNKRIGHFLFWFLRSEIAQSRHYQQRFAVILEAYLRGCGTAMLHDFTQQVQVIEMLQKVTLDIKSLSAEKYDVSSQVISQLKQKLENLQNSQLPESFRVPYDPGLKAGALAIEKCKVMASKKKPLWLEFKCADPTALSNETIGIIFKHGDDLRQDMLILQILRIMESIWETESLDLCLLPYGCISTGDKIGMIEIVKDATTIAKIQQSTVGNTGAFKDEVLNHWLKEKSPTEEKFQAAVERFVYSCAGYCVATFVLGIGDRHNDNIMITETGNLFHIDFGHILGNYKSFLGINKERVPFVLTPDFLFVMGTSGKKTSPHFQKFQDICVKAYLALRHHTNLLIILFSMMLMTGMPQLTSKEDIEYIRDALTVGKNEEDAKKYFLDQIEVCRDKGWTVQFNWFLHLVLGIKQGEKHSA

Take `CC(NC(=O)c1c(N)nn2cccnc12)c1cc(C2CC2)c2cncn2c1-c1ccccc1` (racemic) [Example 117, 2-Amino-N-[1-(8-cyclopropyl-5-phenylimidazo[1,5-a]pyridin-6-yl)ethyl]pyrazolo[1,5-a]pyrimidine-3-carboxamide trifluoroacetate salt]: the IC50 in assay [1] is less than 0.5 µM; in assay [2] (2 μM ATP, 20 μM PIP2), less than 2 µM.
For `CNC(=O)c1ccc(-c2c(C(C)NC(=O)c3c(N)nn4cccnc34)cc(Cl)c3cncn23)cn1` (racemic) [Example 132, 2-Amino-N-[1-{8-chloro-5-{6-[(methylamino)carbonyl]pyridin-3-yl}imidazo [1,5-a]pyridin-6-yl)ethyl]pyrazolo[1,5-a]pyrimidine-3-carboxamide trifluoroacetate salt], the IC50 was less than 0.5 µM in assay [1] and less than 0.5 µM in assay [2] (2 μM ATP, 20 μM PIP2).
In the case of `CC(NC(=O)c1c(N)nn2cccnc12)c1cc(Cl)c2c(C(F)(F)F)ncn2c1N1CCNS(=O)(=O)CC1` (racemic) [Example 159, 2-Amino-N-{1-[8-chloro-5-(1,1-dioxido-1,2,5-thiadiazepan-5-yl)-1-(trifluoromethyl)imidazo[1,5-a]pyridin-6-yl]ethyl}pyrazolo[1,5-a]pyrimidine-3-carboxamide trifluoroacetate salt], the 50% inhibitory concentration (IC50) in assay [1] is less than 0.5 µM; in assay [2] (2 μM ATP, 20 μM PIP2), less than 2 µM.
Regarding `CC(NC(=O)c1c(N)nn2cccnc12)c1cc(Cl)c2cncn2c1C1CCCCC1` (racemic) [Example 183, 2-Amino-N-[1-(8-chloro-5-cyclohexylimidazo[1,5-a]pyridin-6-yl)ethyl]pyrazolo[1,5-a]pyrimidine-3-carboxamide trifluoroacetate salt], the 50% inhibitory concentration (IC50) in assay [1] was less than 0.5 µM; in assay [2] (2 μM ATP, 20 μM PIP2), less than 2 µM.
Turning to `Cc1nnc2c(Cl)cc(C(C)NC(=O)c3c(N)nn4cccnc34)c(-c3ccccc3)n12` (racemic) [Example 184, 2-Amino-N-[1-(8-chloro-3-methyl-5-phenyl[1,2,4]triazolo[4,3-a]pyridin-6-yl)ethyl]pyrazolo[1,5-a]pyrimidine-3-carboxamide trifluoroacetate salt], the half-inhibitory concentration (IC50) in assay [1] was less than 0.5 µM; in assay [2] (2 μM ATP, 20 μM PIP2) it was no less than 2 µM.
Take `CC(NC(=O)c1c(N)nn2cccnc12)c1cc(Cl)c2nncn2c1-c1ccccc1` (racemic) [Example 185, 2-Amino-N-[1-(8-chloro-5-phenyl[1,2,4]triazolo[4,3-a]pyridin-6-yl)ethyl]pyrazolo[1,5-a]pyrimidine-3-carboxamide trifluoroacetate salt]: the IC50 was less than 0.5 µM in assay [1] and no less than 2 µM in assay [2] (2 μM ATP, 20 μM PIP2).
For `CCOc1c(C(C)NC(=O)c2c(N)nn3cccnc23)cc(Cl)c2cn[nH]c12` (single isomer, unassigned) [Example 3b, 2-amino-N-[1-(4-chloro-7-ethoxy-1H-indazol-6-yl)ethyl]pyrazolo[1,5-a]pyrimidine-3-carboxamide trifluoroacetate] the same measures were greater than 2 µM and no less than 2 µM.
Consider `CCOc1c(C(C)n2nc(C)c3c(N)ncnc32)cc(Cl)c(F)c1C1CNC(=O)C1` (single isomer, unassigned) [Example 32a, 4-{3-[1-(4-amino-3-methyl-1H-pyrazolo[3,4-d]pyrimidin-1-yl)ethyl]-5-chloro-2-ethoxy-6-fluorophenyl}pyrrolidin-2-one, reference compound], for which the IC50 in assay [2] (Table B, Assay C) lay within 0.05 to 0.2 µM.
For `CCOc1c(C(C)n2nc(C)c3c(N)ncnc32)cc(Cl)c(F)c1C1CNC(=O)C1` (single isomer, unassigned) [Example 32b, 4-{3-[1-(4-amino-3-methyl-1H-pyrazolo[3,4-d]pyrimidin-1-yl)ethyl]-5-chloro-2-ethoxy-6-fluorophenyl}pyrrolidin-2-one, reference compound], the IC50 in assay [2] (Table B, Assay C) is less than 0.05 µM.
On the same count and under the same terms, with `CCOc1c(C(C)n2nc(C)c3c(N)ncnc32)cc(Cl)c(F)c1C1CNC(=O)C1` (single isomer, unassigned) [Example 32c, 4-{3-[1-(4-amino-3-methyl-1H-pyrazolo[3,4-d]pyrimidin-1-yl)ethyl]-5-chloro-2-ethoxy-6-fluorophenyl}pyrrolidin-2-one, reference compound] the figure was less than 0.05 µM.
`CCOc1c(C(C)n2nc(C)c3c(N)ncnc32)cc(Cl)c(F)c1C1CNC(=O)C1` (single isomer, unassigned) [Example 32d, 4-{3-[1-(4-amino-3-methyl-1H-pyrazolo[3,4-d]pyrimidin-1-yl)ethyl]-5-chloro-2-ethoxy-6-fluorophenyl}pyrrolidin-2-one, reference compound]: in assay [2] (Table B, Assay C), the 50% inhibitory concentration (IC50) lay in the range of 0.05 to 0.2 µM.
Consider `CCOc1c(C(C)NC(=O)c2c(N)nn3cccnc23)cc(Cl)c2cn(CCOC)nc12` (stereo not drawn) [Example 5a, 2-amino-N-(1-(4-chloro-7-ethoxy-2-(2-methoxyethyl)-2H-indazol-6-yl)ethyl)pyrazolo[1,5-a]pyrimidine-3-carboxamide trifluoroacetate], for which the IC50 in assay [1] was less than 2 µM; in assay [2] (2 μM ATP, 20 μM PIP2), less than 2 µM.
Turning to `CCOc1c(C(C)NC(=O)c2c(N)nn3cccnc23)cc(Cl)c2cn(CCO)nc12` (stereo not drawn) [Example 6a, 2-amino-N-(1-(4-chloro-7-ethoxy-2-(2-hydroxyethyl)-2H-indazol-6-yl)ethyl)pyrazolo[1,5-a]pyrimidine-3-carboxamide trifluoroacetate], the IC50 in assay [1] was less than 2 µM; in assay [2] (2 μM ATP, 20 μM PIP2), less than 2 µM.
Consider `CCOc1c(C(C)NC(=O)c2c(N)nn3cccnc23)cc(Cl)c2cn(CC#N)nc12` (stereo not drawn) [Example 7a, 2-amino-N-(1-(4-chloro-2-(cyanomethyl)-7-ethoxy-2H-indazol-6-yl)ethyl)pyrazolo[1,5-a]pyrimidine-3-carboxamide trifluoroacetate], for which the half-maximal inhibitory concentration (IC50) is greater than 2 µM in assay [1] and no less than 2 µM in assay [2] (2 μM ATP, 20 μM PIP2).
Regarding `CCOc1c(C(C)NC(=O)c2c(N)nn3cccnc23)cc(Cl)c2cn(Cc3ccccc3)nc12` (stereo not drawn) [Example 8a, 2-amino-N-(1-(2-benzyl-4-chloro-7-ethoxy-2H-indazol-6-yl)ethyl)pyrazolo[1,5-a]pyrimidine-3-carboxamide trifluoroacetate], the concentration for half-maximal inhibition (IC50) is less than 2 µM in assay [1] and no less than 2 µM in assay [2] (2 μM ATP, 20 μM PIP2).
On to `CCOc1c(C(C)NC(=O)c2c(N)nn3cccnc23)cc(Cl)c2cn(CC(C)C)nc12` (stereo not drawn) [Example 9a, 2-amino-N-(1-(4-chloro-7-ethoxy-2-isobutyl-2H-indazol-6-yl)ethyl)pyrazolo[1,5-a]pyrimidine-3-carboxamide trifluoroacetate], for which the concentration for half-maximal inhibition (IC50) in assay [1] was less than 2 µM; in assay [2] (2 μM ATP, 20 μM PIP2), no less than 2 µM.
For `CCOc1c(C(C)NC(=O)c2c(N)nn3cccnc23)cc(Cl)c2cn(C3CCC3)nc12` (stereo not drawn) [Example 10a, 2-amino-N-(1-(4-chloro-2-cyclobutyl-7-ethoxy-2H-indazol-6-yl)ethyl)pyrazolo[1,5-a]pyrimidine-3-carboxamide trifluoroacetate] the same measures were less than 2 µM and no less than 2 µM.
Turning to `CCOc1c(C(C)NC(=O)c2c(N)nn3cccnc23)cc(Cl)c2cn(C(C)C)nc12` (stereo not drawn) [Example 11a, 2-amino-N-(1-(4-chloro-7-ethoxy-2-isopropyl-2H-indazol-6-yl)ethyl)pyrazolo[1,5-a]pyrimidine-3-carboxamide trifluoroacetate], the IC50 in assay [1] is less than 2 µM; in assay [2] (2 μM ATP, 20 μM PIP2), no less than 2 µM.
Regarding `COc1c(C(C)n2nc(C)c3c(N)ncnc32)cc(Cl)c(C#N)c1C1CN(C[C@H](C)O)C1` (stereo partly drawn) [Example 29, 4-[1-(4-amino-3-methyl-1H-pyrazolo[3,4-d]pyrimidin-1-yl)ethyl]-6-chloro-2-{1-[(2S)-2-hydroxypropyl]azetidin-3-yl}-3-methoxybenzonitrile], in assay [2] (Table B, Assay C), the IC50 is less than 0.05 µM.
Same read-out and setting: with `COc1c(C(C)n2nc(C)c3c(N)ncnc32)cc(Cl)c(C#N)c1C1CN(CCO)C1` (stereo not drawn) [Example 30, 4-[1-(4-amino-3-methyl-1H-pyrazolo[3,4-d]pyrimidin-1-yl)ethyl]-6-chloro-2-[1-(2-hydroxyethyl)azetidin-3-yl]-3-methoxybenzonitrile] the figure was less than 0.05 µM.
As for `CCOc1c(C(C)n2nc(C)c3c(N)ncnc32)cc(C)c(C#N)c1-c1ccc(C(=O)N(C)C)nc1` (stereo not drawn) [Example 31, 5-{3-[1-(4-amino-3-methyl-1H-pyrazolo[3,4-d]pyrimidin-1-yl)ethyl]-6-cyano-2-ethoxy-5-methylphenyl}-N,N-dimethylpyridine-2-carboxamide, reference compound], in assay [2] (Table B, Assay C), the IC50 was less than 0.05 µM.
For the molecule `CCOc1c(C(C)NC(=O)c2c(N)nc3ccc(C)nn23)cc(Cl)c2cn[nH]c12` (stereo not drawn) [Example 46, 2-Amino-N-(1-(4-chloro-7-ethoxy-1H-indazol-6-yl)ethyl)-6-methylimidazo[1,2-b]pyridazine-3-carboxamide], the concentration for half-maximal inhibition (IC50) was less than 0.5 µM in assay [1] and less than 0.5 µM in assay [2] (2 μM ATP, 20 μM PIP2).
Take `CCOc1c(C(C)NC(=O)c2c(N)nc3ccc(N4CCCCC4)nn23)cc(Cl)c2cn[nH]c12` (stereo not drawn) [Example 47, 2-Amino-N-(1-(4-chloro-7-ethoxy-1H-indazol-6-yl)ethyl)-6-(piperidin-1-yl)imidazo[1,2-b]pyridazine-3-carboxamide]: the IC50 in assay [1] is less than 0.5 µM; in assay [2] (2 μM ATP, 20 μM PIP2), less than 0.5 µM.
Consider `CCc1n[nH]c2c(-c3ccccc3)c(C(C)NC(=O)c3c(N)nn4cccnc34)cc(Cl)c12` (stereo not drawn) [Example 51, 2-Amino-N-(1-(4-chloro-3-ethyl-7-phenyl-1H-indazol-6-yl)ethyl)pyrazolo[1,5-a]pyrimidine-3-carboxamide trifluoroacetate], for which the IC50 in assay [1] was less than 2 µM; in assay [2] (2 μM ATP, 20 μM PIP2) it was no less than 2 µM.
Turning to `CC(NC(=O)c1c(N)nn2cccnc12)c1cc(Cl)c2cn[nH]c2c1OCCCN` (stereo not drawn) [Example 64, 2-Amino-N-{1-[7-(3-aminopropoxy)-4-chloro-1H-indazol-6-yl]ethyl}pyrazolo[1,5-a]pyrimidine-3-carboxamide bis(trifluoroacetate)], the IC50 in assay [1] is less than 0.5 µM; in assay [2] (2 μM ATP, 20 μM PIP2), less than 0.5 µM.
Consider `CC(NC(=O)c1c(N)nn2cccnc12)c1cc(Cl)c2cncn2c1N1CCCC(F)C1` (stereo not drawn) [Example 73C-73D, 2-Amino-N-{1-[8-chloro-5-(3-fluoropiperidin-1-yl)imidazo[1,5-a]pyridin-6-yl]ethyl}pyrazolo[1,5-a]pyrimidine-3-carboxamide], for which the concentration for half-maximal inhibition (IC50) was less than 0.5 µM in assay [1] and no less than 2 µM in assay [2] (2 μM ATP, 20 μM PIP2).

As usually defined, the IC50 is the concentration at which inhibition is half-maximal.
